In patent US11780830B2, “Triazolone derivatives or salts thereof and pharmaceutical compositions comprising the same” (YUHAN CORPORATION, priority 2018, dated 2023) one finds IC50 data, which are given here for eight compounds.

Assay type in all cases: biochemical
One experiment has as its target T1, recombinant human VAP-1 (Homo sapiens, UniProt Q16853).
T1 construct: purchased R&D systems
T1 sequence (Q16853 1-763): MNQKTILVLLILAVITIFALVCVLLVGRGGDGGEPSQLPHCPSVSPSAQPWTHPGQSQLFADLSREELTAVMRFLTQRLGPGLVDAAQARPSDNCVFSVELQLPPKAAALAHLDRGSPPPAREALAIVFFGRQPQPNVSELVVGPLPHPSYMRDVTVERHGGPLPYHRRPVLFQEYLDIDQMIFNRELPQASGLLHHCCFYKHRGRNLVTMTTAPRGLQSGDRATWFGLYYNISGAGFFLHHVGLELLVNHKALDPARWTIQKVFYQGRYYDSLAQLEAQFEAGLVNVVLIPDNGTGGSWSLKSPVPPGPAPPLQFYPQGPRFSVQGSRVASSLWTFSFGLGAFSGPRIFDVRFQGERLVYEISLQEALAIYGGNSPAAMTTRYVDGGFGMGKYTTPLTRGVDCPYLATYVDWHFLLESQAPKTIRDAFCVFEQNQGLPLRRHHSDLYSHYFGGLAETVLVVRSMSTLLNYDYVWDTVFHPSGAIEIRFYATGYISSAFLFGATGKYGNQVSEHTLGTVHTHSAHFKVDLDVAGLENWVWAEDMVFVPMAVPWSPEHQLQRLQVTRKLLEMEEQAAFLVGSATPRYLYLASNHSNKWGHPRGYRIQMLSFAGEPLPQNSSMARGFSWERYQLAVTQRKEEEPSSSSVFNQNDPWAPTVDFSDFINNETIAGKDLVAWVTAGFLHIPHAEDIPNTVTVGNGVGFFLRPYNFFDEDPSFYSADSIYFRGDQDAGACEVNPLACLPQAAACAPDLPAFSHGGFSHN
The experiment is described as follows: Activity on recombinant human VAP-1, HRP-coupled Amplex Red hydrogen peroxide assay. The settings on record: substrate 1 mM benzylamine; compound incubated with enzyme at 37° C. for 30 minutes; pH 7.4; read-out: Inhibitory Activity (IC50, nM) human VAP-1. A digest of the protocol: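 Enzyme in 50 mM sodium phosphate (pH 7.4) is exposed to test compound for 30 min at 37 °C. Benzylamine (1 mM) with HRP and Amplex Red then starts the reaction, and the fluorescence rate, relative to a DMSO-only control, gives IC50.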

For experiment [1], the target named is T2, recombinant human MAO-A (monoamine oxidase-A) (Homo sapiens, UniProt P21397).
T2 construct: purchased Sigma-Aldrich
T2 sequence (P21397 1-527): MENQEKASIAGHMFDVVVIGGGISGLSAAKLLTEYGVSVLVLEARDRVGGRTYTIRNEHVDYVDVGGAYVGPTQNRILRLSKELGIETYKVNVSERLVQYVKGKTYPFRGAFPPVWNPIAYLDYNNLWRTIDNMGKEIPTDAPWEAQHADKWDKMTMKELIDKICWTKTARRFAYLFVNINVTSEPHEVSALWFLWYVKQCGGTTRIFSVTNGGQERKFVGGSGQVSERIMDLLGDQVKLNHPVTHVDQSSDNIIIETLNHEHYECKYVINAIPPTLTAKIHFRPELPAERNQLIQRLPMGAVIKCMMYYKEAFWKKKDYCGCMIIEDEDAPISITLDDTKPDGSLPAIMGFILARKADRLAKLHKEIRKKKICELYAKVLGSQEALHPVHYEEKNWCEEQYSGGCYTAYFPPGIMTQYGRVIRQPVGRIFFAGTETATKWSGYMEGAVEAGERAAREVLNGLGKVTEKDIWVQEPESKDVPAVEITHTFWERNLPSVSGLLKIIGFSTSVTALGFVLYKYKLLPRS
Kind of experiment: Activity on recombinant human MAO-A, method similar to the VAP-1 assay. The note with it: substrate 0.5 mM tyramine; read-out: Inhibitory Activity (IC50, nM) MAO-A. A digest of the protocol: (§1)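 Enzyme in pH 7.4 phosphate buffer; 30 min, 37° C with compound (DMSO <1%); start with 200 uM Amplex Red + 1 U/mL HRP + tyramine 0.5 mM (MAO-A) or benzylamine 1 mM (MAO-B); kinetic read ex 544/em 590, 1-2 h; % rate decrease vs DMSO control → IC50, 4-parameter fit.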

Experiment [2] concerns the target T3, recombinant human MAO-B (monoamine oxidase-B) (Homo sapiens, UniProt P27338).
T3 construct: purchased Sigma-Aldrich
T3 sequence (P27338 1-520): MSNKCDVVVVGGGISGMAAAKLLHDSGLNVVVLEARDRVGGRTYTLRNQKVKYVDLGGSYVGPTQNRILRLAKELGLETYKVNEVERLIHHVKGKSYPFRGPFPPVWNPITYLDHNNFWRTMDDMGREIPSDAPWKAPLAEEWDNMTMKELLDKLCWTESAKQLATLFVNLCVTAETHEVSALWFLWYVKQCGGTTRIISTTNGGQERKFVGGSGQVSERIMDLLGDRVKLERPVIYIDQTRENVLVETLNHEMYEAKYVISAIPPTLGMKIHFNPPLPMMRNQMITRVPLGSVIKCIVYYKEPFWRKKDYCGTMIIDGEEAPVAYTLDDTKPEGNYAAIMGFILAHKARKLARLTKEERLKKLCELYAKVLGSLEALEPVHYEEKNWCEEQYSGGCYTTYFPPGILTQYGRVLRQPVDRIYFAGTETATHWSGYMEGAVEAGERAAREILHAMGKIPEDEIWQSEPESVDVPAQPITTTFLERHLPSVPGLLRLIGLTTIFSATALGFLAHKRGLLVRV
The experiment is described as follows: Activity on recombinant human MAO-B, method similar to the VAP-1 assay. The settings on record: substrate 1 mM benzylamine; read-out: Inhibitory Activity (IC50, nM) MAO-B. In a few lines: as §1

In experiment [3] the target is T4, recombinant human DAO (diamine oxidase) (Homo sapiens, UniProt P19801).
T4 construct: purchased R&D systems
T4 sequence (P19801 20-751): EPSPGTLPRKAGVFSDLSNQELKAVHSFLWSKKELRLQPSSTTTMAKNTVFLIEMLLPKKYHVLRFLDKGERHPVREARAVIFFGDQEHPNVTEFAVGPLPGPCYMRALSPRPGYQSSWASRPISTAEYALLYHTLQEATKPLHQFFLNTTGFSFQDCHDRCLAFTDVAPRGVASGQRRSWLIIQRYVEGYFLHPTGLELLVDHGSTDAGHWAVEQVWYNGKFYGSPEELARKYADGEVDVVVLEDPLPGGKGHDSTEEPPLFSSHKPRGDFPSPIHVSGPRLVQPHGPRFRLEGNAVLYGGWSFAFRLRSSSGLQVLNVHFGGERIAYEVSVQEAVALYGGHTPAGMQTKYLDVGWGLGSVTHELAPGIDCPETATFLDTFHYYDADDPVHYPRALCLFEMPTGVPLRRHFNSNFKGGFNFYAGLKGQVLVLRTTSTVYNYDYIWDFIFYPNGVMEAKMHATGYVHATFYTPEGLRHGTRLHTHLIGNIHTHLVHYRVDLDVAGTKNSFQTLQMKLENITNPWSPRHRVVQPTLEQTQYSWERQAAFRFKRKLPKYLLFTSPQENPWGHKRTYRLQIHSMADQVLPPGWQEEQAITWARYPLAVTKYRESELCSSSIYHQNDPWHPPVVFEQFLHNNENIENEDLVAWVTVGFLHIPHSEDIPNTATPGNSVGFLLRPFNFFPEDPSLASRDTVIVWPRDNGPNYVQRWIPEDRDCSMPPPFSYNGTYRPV
Kind of experiment: Activity on recombinant human DAO, method similar to the VAP-1 assay. The settings on record: substrate 1 mM putrescine; read-out: Inhibitory Activity (IC50, nM) DAO. A digest of the protocol:
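Inhibition of recombinant human diamine oxidase (DAO, R&D systems) was assessed by the same approach as the VAP-1 assay, using 1 mM putrescine as substrate. Hydrogen peroxide formed was detected through an HRP-coupled Amplex Red reaction yielding fluorescent resorufin, read at 544 nm excitation and 590 nm emission. IC50 values came from four-parameter logistic fitting in GraphPad Prism.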

Structures can show the parent of a compound that is named as a salt.

Regarding `CN1C(=O)CCc2cc(-c3ccc(CCn4cnn(C/C(=C/F)CN)c4=O)s3)ccc21` [Example 219, 6-[5-(2-{1-[(2E)-2-(aminomethyl)-3-fluoroprop-2-en-1-yl]-5-oxo-1,5-dihydro-4H-1,2,4-triazol-4-yl}ethyl)thiophen-2-yl]-1-methyl-3,4-dihydroquinolin-2(1H)-one], the concentration for half-maximal inhibition (IC50) at recombinant human VAP-1 was 0.5 nM; in experiment [1], greater than 100000 nM; in experiment [2], 38000 nM; in experiment [3] it was 120 nM.

`CN(C)c1ccc(-c2ccc(Cn3cnn(C/C(=C/F)CN)c3=O)s2)cn1` [Example 42, 2-[(2E)-2-(aminomethyl)-3-fluoroprop-2-en-1-yl]-4-(5-[6-(dimethylamino)pyridin-3-yl]thiophen-2-ylmethyl)-2,4-dihydro-3H-1,2,4-triazol-3-one hydrochloride]: the IC50 at recombinant human VAP-1 is 0.7 nM; in experiment [1], greater than 100000 nM; in experiment [2] it was 5100 nM; in experiment [3], 570 nM.

`NC/C(=C\F)Cn1ncn(Cc2ccc(-c3cnc(N)nc3)s2)c1=O` [Example 167, 2-[(2E)-2-(aminomethyl)-3-fluoroprop-2-en-1-yl]-4-{[5-(2-aminopyrimidin-5-yl)thiophen-2-yl]methyl}-2,4-dihydro-3H-1,2,4-triazol-3-one]: the IC50 at recombinant human VAP-1 was 2.4 nM; in experiment [1] it was greater than 100000 nM; in experiment [2] it was greater than 10000 nM; in experiment [3], 1800 nM.

Regarding `CN(C)c1ncc(-c2ccc(Cn3cnn(C/C(=C/F)CN)c3=O)s2)cc1F` [Example 173, 2-[(2E)-2-(aminomethyl)-3-fluoroprop-2-en-1-yl]-4-({5-[6-(dimethylamino)-5-fluoropyridin-3-yl]thiophen-2-yl}methyl)-2,4-dihydro-3H-1,2,4-triazol-3-one], the IC50 at recombinant human VAP-1 was 2.1 nM; in experiment [1] it was greater than 100000 nM; in experiment [2] it was 2000 nM; in experiment [3], 1200 nM.

On to `NC/C(=C\F)Cn1ncn(Cc2cc3cc(-c4ccc5c(c4)OCO5)ccc3s2)c1=O` [Example 207, 2-[(2E)-2-(aminomethyl)-3-fluoroprop-2-en-1-yl]-4-{[5-(1,3-benzodioxol-5-yl)-1-benzothiophen-2-yl]methyl}-2,4-dihydro-3H-1,2,4-triazol-3-one], for which the IC50 on recombinant human VAP-1 is 3.8 nM; in experiment [1] it was greater than 100000 nM; in experiment [2], 64 nM; in experiment [3], 2800 nM.

As to `CN(C)c1ccc(-c2ccc(CCn3cnn(C/C(=C/F)CN)c3=O)s2)cn1` [Example 220, 2-[(2E)-2-(aminomethyl)-3-fluoroprop-2-en-1-yl]-4-(2-{5-[6-(dimethylamino)pyridin-3-yl]thiophen-2-yl}ethyl)-2,4-dihydro-3H-1,2,4-triazol-3-one], the IC50 at recombinant human VAP-1 is 0.7 nM; in experiment [1] it was greater than 100000 nM; in experiment [2] it was 25000 nM; in experiment [3], 520 nM.

As to `NC/C(=C\F)Cn1ncn(Cc2ccc(-c3ccc(N4CCNCC4)nc3)s2)c1=O` [Example 199, 2-[(2E)-2-(aminomethyl)-3-fluoroprop-2-en-1-yl]-4-({5-[6-(piperazin-1-yl)pyridin-3-yl]thiophen-2-yl}methyl)-2,4-dihydro-3H-1,2,4-triazol-3-one], the IC50 on recombinant human VAP-1 was 8.8 nM; in experiment [1], greater than 100000 nM; in experiment [2] it was greater than 100000 nM; in experiment [3], 1100 nM.

With `NC/C(=C\F)Cn1ncn(Cc2ccc(-c3ccc(N4CCNCC4)cc3)s2)c1=O` [Example 22, 2-[(2E)-2-(aminomethyl)-3-fluoroprop-2-en-1-yl]-4-(5-[4-(piperazin-1-yl)phenyl]thiophen-2-ylmethyl)-2,4-dihydro-3H-1,2,4-triazol-3-one hydrochloride], the IC50 was 6.4 nM at recombinant human VAP-1, greater than 100000 nM in experiment [1], 2600 nM in experiment [2] and 2400 nM in experiment [3].

One may read the IC50 as the concentration that inhibits the measured activity by half.
